# Reference: patent US5089623A, “Certain imidate insecticides” (Imperial Chemical Industries Plc, priority 1990, dated 1992)
# Tests used:
# Type in all cases: in vivo
# [1] = tested on: Housefly [Musca domestica]; assay: Housefly insecticidal test (HF); conditions: per 25 female houseflies, 48 hours
# [2] = tested on: Tobacco Budworm [Heliothis virescens (Fabricius)] eggs; assay: Tobacco budworm egg test (TBW-E); conditions: percent in solution
# [3] = tested on: Cabbage Looper [Trichoplusia ni (Hubner)]; assay: Cabbage looper test (CL); conditions: second-instar larvae, 3-5 days, percent in solution
# [4] = tested on: Maize weevil [Sitophilus Zeamais (Motschulsky)]; assay: Maize weevil test (MW); conditions: adult weevils, treated corn seeds, 48 hours, percent in solution
# Procedure: The compounds in Tables 1 and 2 above were tested for insecticidal activity using the following testing procedures. LC50 values, based on the results of these tests and calculated according to dosage-mortality curves, are expressed in Table 3.
# Maize weevil [Sitophilus Zeamais (Motschulsky)]
# Test compounds were diluted in a 50:50 acetone:water solution. Four corn seeds [Zea mays (L.)] which had been immersed in test solutions for 2-3 seconds and allowed to dry were placed in containers together with 10 adult weevils. The containers were covered and kept at a temperature of about 25° C. Mortality was recorded after 48 hours. Test concentrations ranged from 0.01% down to that at which 50% mortalilty occurred. The LC50 values are expressed below in Table 3 under the heading "MW" in terms of percent of the test compound in solution.
Compound,LC50 HF [1] [µg],LC50 TBW E [2] [%],LC50 CL [3] [%],LC50 MW [4] [%]
CC(C)C(=Nc1ccc(I)c(Cl)c1)OCc1ccc(F)c(Oc2ccc(F)cc2)c1 [Compound 385],< 100,> 0.1,> 0.1,> 0.01
C=C(C)C(=Nc1ccc(F)c(Cl)c1)OCc1cccc(Oc2ccccc2)c1 [Compound 417],< 100,0.04,0.0008,< 0.01
CC(C)C(=Nc1cccc(C(F)(F)F)c1)OCc1cc(Oc2ccc(Cl)cc2)ccn1 [Compound 509],79,> 0.1,0.0075,> 0.01
CC(C)C(=Nc1cccc(C(F)(F)F)c1)OC(C)c1cccc(Oc2ccccc2)c1 (centres unmarked) [Compound 459],> 100,0.1,0.008,> 0.01
COCc1c(F)c(F)c(COC(=Nc2cccc(C(F)(F)F)c2)C(C)C)c(F)c1F [Compound 503],21,0.08,0.001,> 0.01
Cc1cc(N=C(OCc2ccc(F)c(Oc3ccc(Cl)cc3)c2)C(C)C)ccc1F [Compound 399],< 100,0.025,0.0012,> 0.01
CC(C)C(=Nc1ccc(OC(F)(F)F)cc1)OCc1cccc(Oc2ccccc2)n1 [Compound 550],< 100,> 0.1,0.00034,> 0.01
Fc1ccc(Oc2cccc(COC(=Nc3cccc(C(F)(F)F)c3)C3CC3)c2)cc1 [Compound 294],> 100,> 0.1,0.017,> 0.01
CC(C)C(=Nc1ccc(OC(F)(F)C(F)Cl)cc1)OCc1cccc(Oc2ccccc2)c1 (centres unmarked) [Compound 418],> 100,> 0.1,> 0.1,> 0.01
CC(C)C(=Nc1ccc(F)c(Cl)c1F)OCc1ccc(F)c(Oc2ccc(Cl)cc2)c1 [Compound 395],8.6,0.018,< 0.1,0.004
CC(C)C(=Nc1ccc2c(c1)OC(F)(F)O2)OCc1cccc(Oc2ccccc2)n1 [Compound 556],< 100,0.04,0.0007,> 0.01
Cc1ccc(N=C(OCc2cccc(Oc3ccc(Cl)cc3)c2)C(C)C)cc1Cl [Compound 403],< 100,> 0.1,> 0.1,> 0.01
CC(C)C(=Nc1ccc(F)c(Br)c1)OCc1ccc(F)c(Oc2ccccc2)c1 [Compound 299],8,0.017,0.0005,> 0.01
CC(C)C(=Nc1ccc(Cl)c(C(F)(F)F)c1)OCc1ccc(F)c(Oc2ccccc2)c1 [Compound 388],< 100,> 0.1,0.0012,> 0.01
C=C(C)C(=Nc1ccc(C(F)(F)F)cc1)OCc1cccc(Oc2ccc(Cl)cc2)n1 [Compound 560],< 100,< 0.1,0.0015,> 0.01
Clc1ccc(N=C(OCc2cccc(Oc3ccccc3)c2)C2CCC2)cc1 [Compound 8],50,> 0.01,0.01,> 0.01
CC(C)C(=Nc1ccc(Cl)c(C(F)(F)F)c1)OCc1ccc(F)c(Oc2ccc(F)cc2)c1 [Compound 340],34,0.04,0.00037,0.0069
CC(C)C(=Nc1ccc(C(F)(F)F)c(Br)c1)OCc1ccc(F)c(Oc2ccccc2)c1 [Compound 434],< 100,> 0.1,0.0017,0.009
Cc1ccc(N=C(OCc2ccc(F)c(Oc3ccc(Cl)cc3)c2)C(C)C)cc1Cl [Compound 404],< 100,0.025,> 0.1,> 0.01
Cc1ccc(N=C(OCc2cccc(Oc3ccc(F)cc3)c2)C(C)C)cc1Cl [Compound 402],< 100,> 0.1,> 0.1,> 0.01
C=C(C)C(=Nc1ccc(F)c(Cl)c1)OCc1ccc(F)c(Oc2ccccc2)c1 [Compound 416],< 100,0.018,0.00027,> 0.01

Compound,LC50 HF [1] [µg],LC50 TBW E [2] [%],LC50 CL [3] [%],LC50 MW [4] [%]
CCOc1ccc(N=C(OCc2cccc(Oc3ccccc3)c2)C(C)C)cc1Cl [Compound 368],< 100,0.04,0.002,> 0.01
CC(C)C(=Nc1ccc(Cl)cc1)OCc1cccc(Oc2ccc(Cl)cc2)n1 [Compound 554],> 100,0.04,0.00075,> 0.01
CC(C)C(=Nc1ccc(Cl)c(F)c1)OCc1ccc(F)c(Oc2ccc(F)cc2)c1 [Compound 441],< 100,0.016,0.000025,0.006
COc1ccc(N=C(OCc2ccc(F)c(Oc3ccccc3)c2)C(C)C)cc1Cl [Compound 409],< 100,0.025,0.0017,> 0.01
CC(C)C(=Nc1ccc(C(F)(F)F)cc1[N+](=O)[O-])OCc1ccc(F)c(Oc2ccccc2)c1 [Compound 445],< 100,> 0.1,0.00045,> 0.01
CC(C)C(=Nc1cccc(Cl)c1)OCc1ccc(F)c(Oc2ccc(Cl)cc2)c1 [Compound 390],< 100,0.045,0.0021,> 0.01
CC(C)C(=Nc1cccc(Br)c1)OCc1cccc(Oc2ccc(Cl)cc2)n1 [Compound 557],< 100,> 0.1,0.0004,> 0.01
CC(C)C(=Nc1ccc(F)c(I)c1)OCc1cccc(Oc2ccc(F)cc2)c1 [Compound 449],13,0.025,0.0001,0.0075
CC(C)C(=Nc1ccc(I)c(Cl)c1)OCc1cccc(Oc2ccc(F)cc2)c1 [Compound 374],< 100,0.02,0.00058,> 0.01
Fc1ccc(COC(=Nc2ccc(C(F)(F)F)cc2)C2CC2)cc1Oc1ccccc1 [Compound 443],< 100,0.017,0.00015,< 0.01
CC(C)C(=Nc1cccc(OC(F)(F)F)c1)OCc1ccc(F)c(Oc2ccccc2)c1 [Compound 437],< 100,0.025,0.00075,> 0.01
CC(C)C(=Nc1cccc(OC(F)(F)F)c1)OCc1ccc(F)c(Oc2ccc(Cl)cc2)c1 [Compound 436],< 100,< 0.1,0.00075,> 0.01
CC(C)C(=Nc1ccc(C(F)(F)F)cc1)OCc1cccc(Oc2ccccc2)n1 [Compound 504],< 100,0.05,0.00025,0.01
CC(C)C(=Nc1cccc(C(F)(F)F)c1)OCc1ccnc(Oc2ccc(F)cc2)c1 [Compound 508],> 100,> 0.1,0.013,> 0.01
CC(C)C(=Nc1ccc([N+](=O)[O-])c(C(F)(F)F)c1)OCc1cccc(Oc2ccccc2)c1 [Compound 307],> 100,0.08,0.002,> 0.01
CC(C)C(=Nc1cccc(C(F)(F)F)c1)OCc1cc(Oc2ccccc2)ccn1 [Compound 506],40,> 0.1,0.005,> 0.01
CC(C)C(=Nc1ccc(OCC(F)(F)F)c(F)c1)OCc1cccc(Oc2ccc(Cl)cc2)c1 [Compound 429],> 100,< 0.1,0.0017,> 0.01
CC(C)C(=Nc1ccc2c(c1)OCO2)OCc1coc(Cc2ccccc2)c1 [Compound 483],6,0.05,0.001,> 0.01
CCOc1ccc(N=C(OCc2cccc(Oc3ccc(F)cc3)c2)C(C)C)cc1Br [Compound 446],> 100,< 0.1,0.0008,> 0.01
CC(C)C(=Nc1cccc(Cl)c1)OCc1ccc(F)c(Oc2ccc(F)cc2)c1 [Compound 341],4,0.023,0.0005,> 0.01
